In patent US11155517B2, “4-substituted phenylamine derivatives and their use to protect crops by fighting undesired phytopathogenic micoorganisms” (PI INDUSTRIES LTD., priority 2016, dated 2021):

Key:
Pyricularia oryzae = experiment: microbe, parasite or virus in culture; format: cell-based; conditions: 168 h, read-out: % control compared to the untreated check (radial growth)
Alternaria solani [1] = experiment: Alternaria solani (early blight of tomato/potato) in vitro test, radial growth on Potato Dextrose Agar; format: cell-based; conditions: 168 h, 300 ppm, seven days, 25° C., read-out: % control compared to the untreated check (radial growth)
Septoria lycopersici = Septoria lycopersici (leaf spot of tomato) in vitro test, radial growth on Potato Dextrose Agar; format: cell-based; conditions: 168 h, seven days, 25° C., read-out: % control compared to the untreated check (radial growth)
Alternaria solani [2] = experiment: Greenhouse Alternaria solani test in tomato, preventive; format: in vivo; conditions: 24 h, tomato plants sprayed one day before inoculation, read-out: Efficacy (% control), disease severity vs untreated check
Description: Compounds were dissolved in 2% DMSO/Acetone & then mixed with water to calibrated spray volume of 50 ml. This 50 ml spray solution was poured into the spray bottles for further applications. To test the preventive activity of compounds, healthy young Tomato plants raised in the greenhouse were sprayed with active compound preparation at the stated application rates inside the spray cabinets using hallowcone nozzles. One day after treatment, the plants were inoculated with spore suspension (2% Malt) containing 0.24×10^6 Alternaria solani inoculum. The inoculated plants were then kept in greenhouse chamber at 22-24° C. temperature and 90-95% relative humidity for disease expression. […] Efficacy (% control) of the compounds was calculated by comparing the disease rating in the treatment with untreated control. The sprayed plants were also assessed for compound's phytotoxic effects by recording symptoms like necrosis, chlorosis and stunting.

Colletotrichum capsici = Colletotrichum capsici (anthracnose) in vitro test, radial growth on Potato Dextrose Agar; format: cell-based; conditions: Colletotrichum truncatum, 168 h; 300 ppm; seven days, 25° C.; read-out: % control compared to the untreated check (radial growth)
Rhizoctonia solani = Rhizoctonia solani (rice sheath blight/potato black scurf) in vitro test, radial growth on Potato Dextrose Agar; format: cell-based; conditions: 168 h, 300 ppm, seven days, 25° C., read-out: % control compared to the untreated check (radial growth)
Botrytis cinerea = Botrytis cinerea (gray mold) in vitro test, radial growth on Potato Dextrose Agar; format: cell-based; conditions: 168 h, 300 ppm, seven days, 22° C., read-out: % (control) compared to the untreated check (radial growth)
Fusarium culmorum [3] = experiment: Fusarium culmorum (foot rot of cereals) in vitro test, radial growth on Potato Dextrose Agar; format: cell-based; conditions: Fusarium culmorum, 168 h, read-out: % control compared to the untreated check (radial growth)
Fusarium culmorum [4] = experiment: Greenhouse Fusarium culmorum test in wheat, preventive; format: in vivo; conditions: 24 h, read-out: Efficacy (% control), disease severity vs untreated check
Description: Compounds were dissolved in 2% DMSO/Acetone & then mixed with water to calibrated spray volume of 50 ml. This 50 ml spray solution was poured into the spray bottles for further applications.
To test the preventive activity of compounds, healthy young wheat plants raised in the greenhouse were sprayed with active compound preparation at the stated application rates inside the spray cabinets using hallowcone nozzles. One day after treatment, the plants were inoculated with spore suspension (2% Malt) containing 2×10^6 Fusarium culmorum inoculum. The inoculated plants were then kept in greenhouse chamber at 24° C. temperature and 80-90% relative humidity for disease expression.
A visual assessment of compound's performance was carried by rating the disease severity (0-100% scale) on treated plants on 3, 7, 10 and 15 days after application. Efficacy (% control) of the compounds was calculated by comparing the disease rating in the treatment with untreated control. The sprayed plants were also assessed for compound's phytotoxic effects by recording symptoms like necrosis, chlorosis and stunting.

Botrytis cinera = experiment: Greenhouse Botrytis cinera test in tomato, preventive; format: in vivo; conditions: 24 h, plants sprayed one day before inoculation, read-out: Efficacy (% control), disease severity vs untreated check

Row | Structure (SMILES) | inhibition of growth at 300 ppm (Pyricularia oryzae) | inhibition of growth at 300 ppm (Alternaria solani [1]) | inhibition of growth at 300 ppm (Septoria lycopersici) | pest or weed control at 500 ppm (Alternaria solani [2]) | inhibition of growth at 300 ppm (Colletotrichum capsici) | inhibition of growth at 300 ppm (Rhizoctonia solani) | inhibition of growth at 300 ppm (Botrytis cinerea) | inhibition of growth at 300 ppm (Fusarium culmorum [3]) | pest or weed control at 500 ppm (Fusarium culmorum [4]) | pest or weed control at 500 ppm (Botrytis cinera)
1 | CCN(C)C=Nc1cc(C)c(Cc2ccc(SC)cc2)cc1C [Compound 8, N′-(2,5-dimethyl-4-(4-(methylthio)benzyl)phenyl)-N-ethyl-N-methylformimidamide] | > 75% | > 75% | > 70% | 70 to 100% | > 80% | > 80% | > 80% |  |  | 
2 | CCN(C)C=Nc1cc(F)c(Cc2ccccc2Cl)cc1C [Compound 174, N′-(4-(2-chlorobenzyl)-5-fluoro-2-methylphenyl)-N-ethyl-N-methylformimidamide] | > 75% | > 75% | > 70% | 70 to 100% | > 80% | > 80% | > 80% | 75% |  | 
3 | CCN(C)C=Nc1cc(C)c(Cc2ccccc2C#N)cc1C [Compound 115, N′-(4-(2-cyanobenzyl)-2,5-dimethylphenyl)-N-ethyl-N-methylformimidamide] | > 75% | > 75% |  | 70 to 100% | > 80% | > 80% |  |  |  | 
4 | CCN(C)C=Nc1cc(C)c(Cc2ccccc2[N+](=O)[O-])cc1C [Compound 50, N′-(2,5-dimethyl-4-(2-nitrobenzyl)phenyl)-N-ethyl-N-methylformimidamide] | > 75% | > 75% | > 70% | 70 to 100% | > 80% | > 80% | > 80% | 75% |  | 
5 | CCN(C)C=Nc1cc(C)c(Cc2ccc(C(F)(F)F)cc2)cc1C [Compound 97, N′-(2,5-dimethyl-4-(4-(trifluoromethyl)benzyl)phenyl)-N-ethyl-N-methylformimidamide] |  |  |  | 70 to 100% |  |  |  |  |  | 
6 | CCN(C)C=Nc1cc(C)c(Cc2ccc(F)c(Cl)c2)cc1C [Compound 28, N′-(4-(3-chloro-4-fluorobenzyl)-2,5-dimethylphenyl)-N-ethyl-N-methylformimidamide] | > 75% | > 75% | > 70% |  | > 80% | > 80% | > 80% | 75% | 70 to 100% | 70 to 100%
7 | CCN(C)C=Nc1cc(C)c(Cc2cccc(Br)c2)cc1Cl [Compound 13, N′-(4-(3-bromobenzyl)-2-chloro-5-methylphenyl)-N-ethyl-N-methylformimidamide] | > 75% | > 75% | > 70% |  | > 80% | > 80% | > 80% |  | 70 to 100% | 70 to 100%
8 | CCN(C)C=Nc1cc(C)c(Cc2ccccc2Cl)cc1C [Compound 18, N′-(4-(2-chlorobenzyl)-2,5-dimethylphenyl)-N-ethyl-N-methylformimidamide] | > 75% | > 75% | > 70% |  | > 80% | > 80% | > 80% | 75% | 70 to 100% | 70 to 100%
9 | CCN(C)C=Nc1cc(C)c(Cc2ccccc2Cl)cc1Cl [Compound 17, N′-(2-chloro-4-(2-chlorobenzyl)-5-methylphenyl)-N-ethyl-N-methylformimidamide] | > 75% | > 75% | > 70% |  | > 80% | > 80% | > 80% | 75% | 70 to 100% | 70 to 100%
10 | CCN(C)C=Nc1cc(C)c(Cc2ccc(C(F)(F)F)cc2)cc1Cl [Compound 101, N′-(2-chloro-5-methyl-4-(4-(trifluoromethyl)benzyl)phenyl)-N-ethyl-N-methylformimidamide] | > 75% | > 75% |  |  |  | > 80% | > 80% |  | 70 to 100% | 70 to 100%
11 | Cc1cc(N=CN2CCOCC2)c(C)cc1Cc1cccc(Br)c1F [Compound 36, N-(4-(3-bromo-2-fluorobenzyl)-2,5-dimethylphenyl)-1-morpholinomethanimine] | > 75% |  |  | 70 to 100% |  | > 80% |  |  |  | 
12 | CCN(C)C=Nc1cc(C)c(Cc2ccc(S(C)(=O)=O)cc2)cc1C [Compound 12, N′-(2,5-dimethyl-4-(4-(methylsulfonyl)benzyl)phenyl)-N-ethyl-N-methylformimidamide] | > 75% | > 75% |  |  |  |  |  |  | 70 to 100% | 70 to 100%
13 | CCN(C)C=Nc1cc(C)c(Cc2ccc(Br)cc2)cc1Cl [Compound 22, N′-(4-(4-bromobenzyl)-2-chloro-5-methylphenyl)-N-ethyl-N-methylformimidamide] | > 75% | > 75% | > 70% |  | > 80% | > 80% | > 80% | 75% | 70 to 100% | 70 to 100%
14 | CCN(C)C=Nc1cc(C)c(Cc2cccc(Cl)c2Cl)cc1Cl [Compound 128, N′-(2-chloro-4-(2,3-dichlorobenzyl)-5-methylphenyl)-N-ethyl-N-methylformimidamide] | > 75% | > 75% | > 70% | 70 to 100% | > 80% | > 80% | > 80% |  |  | 
15 | CCN(C)C=Nc1cc(C)c(Cc2ccc(Cl)cc2)cc1C [Compound 7, N′-(4-(4-chlorobenzyl)-2,5-dimethylphenyl)-N-ethyl-N-methylformimidamide] | > 75% | > 75% | > 70% |  | > 80% | > 80% | > 80% | 75% | 70 to 100% | 70 to 100%
16 | CCN(C)C=Nc1cc(C)c(Cc2ccc(C#N)cc2)cc1Cl [Compound 68, N′-(2-chloro-4-(4-cyanobenzyl)-5-methylphenyl)-N-ethyl-N-methylformimidamide] | > 75% | > 75% | > 70% | 70 to 100% |  | > 80% |  | 75% |  | 
